Source: patent US4246262A, “Derivatives of amidinopenicillanic acid” (Leo Pharmaceutical Products, Ltd. A/S, priority 1977, dated 1981)
Values after ≈ are worked out from the molar mass of the structure shown. Structures can show the parent of a compound that is named as a salt.

Tests used:
Test in all cases: antibacterial activity, IC50 (concentration required for 50 percent inhibition)
Format in all cases: cell-based
E.coli HA 2 Leo strain = settings: Escherichia coli, HA2LEOSTRAIN
From the text: (§1) In the table below, the antibacterial activity of the compound of Example 2 is compared to that of the known compounds Ampicillin and Mecillinam.
(§2) In the table IC50 means the concentration required for 50 percent inhibition.

E.coli W3110 (RTEM) = settings: Escherichia coli
From the text: as §1, §2

[1] = test system: Enterobacter cloacae P 99; settings: P99
From the text: as §1, §2

[2] = test system: Klebsiella pneumoniae ATCC 10273; settings: ATCC10273
From the text: as §1, §2

[3] = test system: Pseudomonas aeruginosa BA 2 Leo strain; settings: BA2LEOSTRAIN
From the text: as §1, §2

[4] = test system: Pseudomonas aeruginosa PS 18s; settings: PS18S
From the text: as §1, §2

[5] = test system: Salmonella cholerasuis NCTC 5735; settings: NCTC5735
From the text: as §1, §2

[6] = test system: Salmonella typhimurium NCTC 5710; settings: Salmonella enterica
From the text: as §1, §2

Row | Compound | IC50 (E.coli HA 2 Leo strain) [µg/mL] | IC50 (E.coli W3110 (RTEM)) [µg/mL] | IC50 [1] [µg/mL] | IC50 [2] [µg/mL] | IC50 [3] [µg/mL] | IC50 [4] [µg/mL] | IC50 [5] [µg/mL] | IC50 [6] [µg/mL]
1 | CC1(C)S[C@@H]2[C@H](NC(=O)[C@H](N)c3ccccc3)C(=O)N2[C@H]1C(=O)O [Ampicillin] | 1.3 (≈ 3.72 µM) | > 100 | > 100 | 79 (≈ 226 µM) | > 100 | 50 (≈ 143 µM) | 0.25 (≈ 0.715 µM) | 0.4 (≈ 1.14 µM)
2 | CC1(C)S[C@@H]2[C@H](N=CN3CCC(CSCCN)CC3)C(=O)N2[C@H]1C(=O)O [Example 2, 6-[4'-(2"-Aminoethylthiomethyl)-piperidino-methyleneamino]-penicillanic acid hydrochloride] | 0.05 | 1.6 | 0.063 | 0.32 | 50 | 40 | 0.05 | 0.05
3 | CC1(C)S[C@@H]2[C@H](/N=C/N3CCCCCC3)C(=O)N2[C@H]1C(=O)O [Mecillinam] | 0.016 (≈ 0.0492 µM) | 2 (≈ 6.15 µM) | 0.1 (≈ 0.307 µM) | ~1 (≈ 3.07 µM) | > 100 | > 100 | 0.05 (≈ 0.154 µM) | 0.05 (≈ 0.154 µM)
